Results taken from patent publication US9771340B2, “2-aminothiazole derivatives and methods of preparing and using the same” (Huazhong University of Science & Technology, priority 2011, dated 2017).

Tests used:
PARP-1 = target: T1, PARP-1 (Homo sapiens, UniProt P09874); details: within a concentration of between 2 M and 10 mM (so in the source); positive control; cited from earlier work
T1 construct: purchased R&D 4677-096-K

CD80 in RAW264.7 cells = details: pre-incubated 2 h, then stimulus 12 h
Protocol: 4. Flow antibodies FITC-labeled anti-CD80, CD86 were added for testing.
Raw264.7: 48-well plate, cells number of […]. Each well was added with 1 mL of culture system. Different concentrations of TJ-M201021 were added, and cells were pre-incubated for 2 h. CPG was then added. A final concentration was 40 ug/mL. Cells were incubated for 12 h at a temperature of 37° C. in an incubator filled with CO2. Flow antibodies FITC-labeled anti-CD80 and CD86 were added for testing.

SH-SY5Y cells [1] = assay: Protection against cobalt chloride-induced hypoxic injury, MTT method and microscope; type: cell-based, human; details: cobalt chloride 600 μM/L for 24 h, FIG. 4, FIG. 6
Protocol: Dopaminergic neuroblastoma tumor cells SH-SY5Y from human body were employed as experiment cells. Cobalt chloride having a concentration of 600 μM/L was used to treat SH-SY5Y cells for 24 h. […] It was known from the results that the aminothiazole derivatives have good protection on the cell against hypoxic injuries caused by cobalt chloride. Observed under the microscope, cells after being damaged (FIG. 5) had unclear edges, and the number of the cells was decreased. […] The growth of the cells was good.

SH-SY5Y cells [2] = assay: Protection against neuronal apoptosis induced by hydrogen peroxide, MTT method; type: cell-based, human; details: SH-SY5Y cells damaged by H2O2 1000 μM/L for 12 h; concentration of 1 μM
Protocol: Dopaminergic neuroblastoma tumor cells SH-SY5Y from human body were employed as experiment cells. H2O2 having a concentration of 1000 μM/L was used to treat SH-SY5Y cells for 12 h. Cell viability was approximately 50%, and a hydrogen peroxide damage model was determined MTT method was used to test the protection of TJ-M201018 (1), TJ-M201005 (2), TJ-M201041 (3), TJ-M201021 (4), and TJ-M201064 (5) on the cells damaged by hydrogen peroxide; results were shown in FIG. 3.

T1 sequence (P09874 whole entry): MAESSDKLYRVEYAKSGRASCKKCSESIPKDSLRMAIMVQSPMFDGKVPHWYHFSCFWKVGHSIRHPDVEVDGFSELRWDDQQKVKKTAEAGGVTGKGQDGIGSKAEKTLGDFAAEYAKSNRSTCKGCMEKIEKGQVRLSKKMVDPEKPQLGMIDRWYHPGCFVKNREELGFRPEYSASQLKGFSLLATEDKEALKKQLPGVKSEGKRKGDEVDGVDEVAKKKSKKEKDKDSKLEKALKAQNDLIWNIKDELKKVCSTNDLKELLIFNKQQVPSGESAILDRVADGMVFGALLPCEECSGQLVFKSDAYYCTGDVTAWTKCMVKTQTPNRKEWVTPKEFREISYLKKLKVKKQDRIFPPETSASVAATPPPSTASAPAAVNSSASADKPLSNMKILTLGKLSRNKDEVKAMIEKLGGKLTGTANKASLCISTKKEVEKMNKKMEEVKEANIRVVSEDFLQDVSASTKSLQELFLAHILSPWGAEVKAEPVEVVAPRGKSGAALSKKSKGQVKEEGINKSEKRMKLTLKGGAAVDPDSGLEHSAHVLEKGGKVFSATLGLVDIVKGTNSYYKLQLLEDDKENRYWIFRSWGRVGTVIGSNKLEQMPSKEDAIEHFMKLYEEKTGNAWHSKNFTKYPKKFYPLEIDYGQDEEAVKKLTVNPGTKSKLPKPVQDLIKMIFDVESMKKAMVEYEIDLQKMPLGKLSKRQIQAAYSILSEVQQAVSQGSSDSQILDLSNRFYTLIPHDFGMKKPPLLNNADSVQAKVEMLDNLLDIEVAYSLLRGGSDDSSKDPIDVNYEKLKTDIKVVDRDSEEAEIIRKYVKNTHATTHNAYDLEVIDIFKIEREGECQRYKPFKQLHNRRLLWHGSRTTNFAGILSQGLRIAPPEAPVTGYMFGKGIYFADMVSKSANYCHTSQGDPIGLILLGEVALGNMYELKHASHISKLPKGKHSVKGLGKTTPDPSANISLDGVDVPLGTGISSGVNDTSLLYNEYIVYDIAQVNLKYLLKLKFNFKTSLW

SMILES | inhibition effect on the PARP-1 (PARP-1) | increase of the costimulatory molecules CD80 caused by TLR stimuli (LPS, CpG) (CD80 in RAW264.7 cells) | protection on the cell against hypoxic injuries caused by cobalt chloride (SH-SY5Y cells [1]) | cell viability (FIG. 3: increase rate of the cell viability) (SH-SY5Y cells [2])
NC(=O)c1cccc(N)c1 [3-AB] | had an inhibition effect on the PARP-1 | – | – | –
COc1ccc(N2CCN(CCC(=O)Nc3nc(-c4ccccc4)cs3)CC2)cc1 [TJ-M201021] | – | inhibited the increase of the costimulatory molecules CD80 | a large number of cells existed and had clear edges | 30%
